Reference: the supplement of paper PMC10307832

Experiments:
Assay in all cases: relative viability (nuclei count vs DMSO), 5 days (fraction); higher = more cells survive
[1] = system: HOP-62
In short: (§1)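 Lung cancer cell lines, seeded in 1536-well plates, were treated the following day by pin tool with a single drug or with five library-drug doses (not always all listed) in √10 steps on top of a fixed anchor-drug dose. Cells were fixed and nuclei stained in one step after 5 days, and nuclei were counted. Relative viability is the nuclei count for treated wells divided by that for vehicle wells, reported as medians of duplicate plates.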

[2] = system: NCI-H596
In short: as §1

[3] = system: NCI-H1651
In short: as §1

[4] = system: COR-L23
In short: as §1

[5] = system: NCI-H1355
In short: as §1

[6] = system: LC-2-ad
In short: as §1

[7] = system: NCI-H727
In short: as §1

[8] = system: SW 1573
In short: as §1

[9] = system: PC-3 [JPC-3]
In short: as §1

[10] = system: NCI-H460
In short: as §1

[11] = system: NCI-H322M
In short: as §1

[12] = system: CAL-12T
In short: as §1

[13] = system: 201T
In short: as §1

[14] = system: NCI-H2087
In short: as §1

[15] = system: NCI-H2342
In short: as §1

[16] = system: NCI-H23
In short: as §1

[17] = system: NCI-H661
In short: as §1

[18] = system: NCI-H1944
In short: as §1

[19] = system: ChaGo-K-1
In short: as §1

[20] = system: NCI-H2126
In short: as §1

[21] = system: NCI-H1666
In short: as §1

[22] = system: NCI-H2009
In short: as §1

Oc1nc(-c2ccc(C(F)(F)F)cc2)nc2c1CSCC2 [XAV939] + CC(=O)Nc1cccc(-n2c(=O)n(C3CC3)c(=O)c3c(Nc4ccc(I)cc4F)n(C)c(=O)c(C)c32)c1 [Trametinib] (partner 0.02 µM)
relative viability ([1]; first compound 0.08 µM): 0.392
relative viability ([1]; first compound 0.253 µM): 0.329
relative viability ([1]; first compound 0.8 µM): 0.411
relative viability ([1]; first compound 2.53 µM): 0.312
relative viability ([2]; first compound 0.08 µM): 0.974
relative viability ([2]; first compound 0.253 µM): 0.775
relative viability ([2]; first compound 0.8 µM): 0.75
relative viability ([2]; first compound 2.53 µM): 0.657
relative viability ([3]; first compound 0.08 µM): 0.821
relative viability ([3]; first compound 0.253 µM): 0.724
relative viability ([3]; first compound 0.8 µM): 0.825
relative viability ([3]; first compound 2.53 µM): 0.816
relative viability ([4]; first compound 0.08 µM): 0.651
relative viability ([4]; first compound 0.253 µM): 0.597
relative viability ([4]; first compound 0.8 µM): 0.543
relative viability ([4]; first compound 2.53 µM): 0.531
relative viability ([5]; first compound 0.08 µM): 0.367
relative viability ([5]; first compound 0.253 µM): 0.336
relative viability ([5]; first compound 0.8 µM): 0.38
relative viability ([5]; first compound 2.53 µM): 0.291
relative viability ([6]; first compound 0.08 µM): 0.932
relative viability ([6]; first compound 0.253 µM): 0.899
relative viability ([6]; first compound 0.8 µM): 0.922
relative viability ([6]; first compound 2.53 µM): 0.79
relative viability ([7]; first compound 0.08 µM): 0.361
relative viability ([7]; first compound 0.8 µM): 0.398
relative viability ([7]; first compound 2.53 µM): 0.403
relative viability ([8]; first compound 0.08 µM): 0.63
relative viability ([8]; first compound 0.253 µM): 0.545
relative viability ([8]; first compound 0.8 µM): 0.608
relative viability ([8]; first compound 2.53 µM): 0.425
relative viability ([9]; first compound 0.253 µM): 0.613
relative viability ([9]; first compound 0.8 µM): 0.722
relative viability ([9]; first compound 2.53 µM): 0.677
relative viability ([10]; first compound 0.08 µM): 0.164
relative viability ([10]; first compound 0.253 µM): 0.0959
relative viability ([10]; first compound 0.8 µM): 0.124
relative viability ([10]; first compound 2.53 µM): 0.111
relative viability ([11]; first compound 0.08 µM): 0.601
relative viability ([11]; first compound 0.253 µM): 0.526
relative viability ([11]; first compound 0.8 µM): 0.555
relative viability ([11]; first compound 2.53 µM): 0.48
relative viability ([12]; first compound 0.08 µM): 0.346
relative viability ([12]; first compound 0.253 µM): 0.257
relative viability ([12]; first compound 0.8 µM): 0.272
relative viability ([12]; first compound 2.53 µM): 0.223
relative viability ([13]; first compound 0.08 µM): 0.78
relative viability ([13]; first compound 0.253 µM): 0.648
relative viability ([13]; first compound 0.8 µM): 0.685
relative viability ([13]; first compound 2.53 µM): 0.569
relative viability ([14]; first compound 0.08 µM): 0.198
relative viability ([14]; first compound 0.253 µM): 0.168
relative viability ([14]; first compound 0.8 µM): 0.215
relative viability ([14]; first compound 2.53 µM): 0.147
relative viability ([15]; first compound 0.08 µM): 0.834
relative viability ([15]; first compound 0.253 µM): 0.781
relative viability ([15]; first compound 0.8 µM): 0.717
relative viability ([15]; first compound 2.53 µM): 0.446
relative viability ([16]; first compound 0.08 µM): 0.383
relative viability ([16]; first compound 0.8 µM): 0.403
relative viability ([16]; first compound 2.53 µM): 0.349
relative viability ([17]; first compound 0.08 µM): 0.617
relative viability ([17]; first compound 0.253 µM): 0.538
relative viability ([17]; first compound 0.8 µM): 0.543
relative viability ([17]; first compound 2.53 µM): 0.568
relative viability ([18]; first compound 0.08 µM): 0.418
relative viability ([18]; first compound 0.253 µM): 0.388
relative viability ([18]; first compound 0.8 µM): 0.412
relative viability ([18]; first compound 2.53 µM): 0.292
relative viability ([19]; first compound 0.08 µM): 0.977
relative viability ([19]; first compound 0.253 µM): 0.82
relative viability ([19]; first compound 0.8 µM): 0.907
relative viability ([19]; first compound 2.53 µM): 0.802
relative viability ([20]; first compound 0.08 µM): 0.458
relative viability ([20]; first compound 0.253 µM): 0.44
relative viability ([20]; first compound 0.8 µM): 0.478
relative viability ([20]; first compound 2.53 µM): 0.392
relative viability ([21]; first compound 0.08 µM): 1
relative viability ([21]; first compound 0.253 µM): 0.834
relative viability ([21]; first compound 0.8 µM): 0.754
relative viability ([21]; first compound 2.53 µM): 0.871
relative viability ([22]; first compound 0.08 µM): 0.287
relative viability ([22]; first compound 0.253 µM): 0.281
relative viability ([22]; first compound 0.8 µM): 0.19
relative viability ([22]; first compound 2.53 µM): 0.217
